Results on five compounds are retold here after ChEMBL document CHEMBL3046587, “Baseline sensitivity of Monilinia laxa from Greece to fenhexamid and analysis of fenhexamid-resistant mutants” (Crop Prot, 2013).

Molecules are shown by their SMILES. Values after ≈ are worked out from the molar mass of the structure shown.

Common to all, as to type: functional, organism-based
In assay [1] the test system is Monilinia laxa. Description: Fungitoxicity against highly fenhexamid resistant Monilinia laxa MF-2 assessed as reduction in mycelial growth measured at 25 degC after 4 days. The conditions noted are these: MF-2, 96 h.
Assay [2] has as its system Monilinia laxa. In words: Fungitoxicity against moderately fenhexamid resistant Monilinia laxa MF-1 assessed as reduction in mycelial growth measured at 25 degC after 4 days. To be noted: MF-1, 96 h.
Assay [3] relates to Monilinia laxa. In words: Fungitoxicity against wild type Monilinia laxa K2 assessed as reduction in mycelial growth measured at 25 degC after 4 days. The conditions noted are these: K2, 96 h.
Assay [4] has as its system Monilinia laxa. In words: Fungitoxicity against moderately fenhexamid resistant Monilinia laxa MF-8 assessed as reduction in mycelial growth measured at 25 degC after 4 days. The conditions noted are these: MF-8, 96 h.
Assay [5] deals with Monilinia laxa. In words: Fungitoxicity against moderately fenhexamid resistant Monilinia laxa MF-4 assessed as reduction in mycelial growth measured at 25 degC after 4 days. To be noted: MF-4, 96 h.
The test system of assay [6] is Monilinia laxa. Description: Fungitoxicity against moderately fenhexamid resistant Monilinia laxa MF-7 assessed as reduction in mycelial growth measured at 25 degC after 4 days. To be noted: MF-7, 96 h.
The subject of assay [7] is Monilinia laxa. Description: Fungitoxicity against moderately fenhexamid resistant Monilinia laxa MF-22 assessed as reduction in mycelial growth measured at 25 degC after 4 days. To be noted: MF-22, 96 h.
The subject of assay [8] is Monilinia laxa. Description: Fungitoxicity against moderately fenhexamid resistant Monilinia laxa MF-6 assessed as reduction in mycelial growth measured at 25 degC after 4 days. To be noted: MF-6, 96 h.
The test system of assay [9] is Monilinia laxa. In words: Fungitoxicity against highly fenhexamid resistant Monilinia laxa MF-5 assessed as reduction in mycelial growth measured at 25 degC after 4 days. The conditions noted are these: MF-5, 96 h.
Assay [10] deals with Monilinia laxa. In words: Fungitoxicity against highly fenhexamid resistant Monilinia laxa MF-3 assessed as reduction in mycelial growth measured at 25 degC after 4 days. The conditions noted are these: MF-3, 96 h.

Turning to `CC(C)NC(=O)N1CC(=O)N(c2cc(Cl)cc(Cl)c2)C1=O` [IPRODIONE], the concentration giving a half-maximal response (EC50) in assay [1] came out at 0.24 mg/L (≈ 0.727 µM); in [2], 0.26 mg/L (≈ 0.787 µM); in [3], 0.25 mg/L (≈ 0.757 µM); in assay [4], 0.35 mg/L (≈ 1.06 µM); in [5] it was 0.19 mg/L (≈ 0.575 µM); in [6], 0.23 mg/L (≈ 0.697 µM). Moreover, the EC50 in assay [7] is 0.21 mg/L (≈ 0.636 µM); in assay [8], 0.32 mg/L (≈ 0.969 µM); in [9] it was 0.25 mg/L (≈ 0.757 µM); in assay [10], 0.25 mg/L (≈ 0.757 µM).
As for `CCCN(CCOc1c(Cl)cc(Cl)cc1Cl)C(=O)n1ccnc1` [PROCHLORAZ], the EC50 came out at 0.07 mg/L (≈ 0.186 µM) in assay [1]; 0.01 mg/L (≈ 0.0265 µM) in [2]; 0.01 mg/L (≈ 0.0265 µM) in [3]; 0.02 mg/L (≈ 0.0531 µM) in assay [4]; 0.04 mg/L (≈ 0.106 µM) in assay [5]; 0.08 mg/L (≈ 0.212 µM) in assay [6]. In addition, the EC50 in assay [7] amounted to 0.02 mg/L (≈ 0.0531 µM); in assay [8], 0.03 mg/L (≈ 0.0796 µM); in assay [9], 0.01 mg/L (≈ 0.0265 µM); in assay [10] it was 0.02 mg/L (≈ 0.0531 µM).
On to `COC(=O)N(OC)c1ccccc1COc1ccn(-c2ccc(Cl)cc2)n1` [PYRACLOSTROBIN], for which the concentration for a half-maximal effect (EC50) came out at 0.5 mg/L (≈ 1.29 µM) in assay [1]; 0.2 mg/L (≈ 0.516 µM) in [2]; 0.3 mg/L (≈ 0.774 µM) in assay [3]; 0.4 mg/L (≈ 1.03 µM) in assay [4]; 0.3 mg/L (≈ 0.774 µM) in assay [5]; 0.4 mg/L (≈ 1.03 µM) in assay [6]. Also, the EC50 amounted to 0.2 mg/L (≈ 0.516 µM) in assay [7], 0.1 mg/L (≈ 0.258 µM) in [8], 0.4 mg/L (≈ 1.03 µM) in [9] and 0.4 mg/L (≈ 1.03 µM) in [10].
Consider `CCCN(CC)CC1COC2(CCC(C(C)(C)C)CC2)O1` (stereo not given) [SPIROXAMINE], for which the EC50 was determined as 3.7 mg/L (≈ 12.4 µM) in assay [1]; 3.8 mg/L (≈ 12.8 µM) in assay [2]; 3.5 mg/L (≈ 11.8 µM) in [3]; 3.2 mg/L (≈ 10.8 µM) in assay [4]; 2.9 mg/L (≈ 9.75 µM) in assay [5]; 3.5 mg/L (≈ 11.8 µM) in [6]. For the same compound, the EC50 is 3.3 mg/L (≈ 11.1 µM) in [7], 12 mg/L (≈ 40.3 µM) in assay [8], 3.5 mg/L (≈ 11.8 µM) in [9] and 3.6 mg/L (≈ 12.1 µM) in assay [10].
With `CCCCCCCCCCCCCN1CC(C)OC(C)C1` (stereo not given) [TRIDEMORPH], the EC50 in assay [1] was found to be 0.07 mg/L (≈ 0.235 µM); in assay [2], 0.4 mg/L (≈ 1.34 µM); in assay [3], 0.1 mg/L (≈ 0.336 µM); in assay [4], 0.4 mg/L (≈ 1.34 µM); in assay [5], 0.12 mg/L (≈ 0.403 µM); in assay [6], 0.09 mg/L (≈ 0.302 µM). Further, the half-maximal effective concentration (EC50) was determined as 0.1 mg/L (≈ 0.336 µM) in assay [7], 0.6 mg/L (≈ 2.02 µM) in [8], 0.08 mg/L (≈ 0.269 µM) in [9] and 0.11 mg/L (≈ 0.37 µM) in assay [10].

Broadly, the EC50 is the concentration at which the effect is half-maximal.
